Reference: patent EP1724268A1, “COMPOUND HAVING TGF-BETA INHIBITORY ACTIVITY AND PHARMACEUTICAL COMPOSITION CONTAINING SAME” (KIRIN BEER KABUSHIKI KAISHA, priority 2004, dated 2005)
Read-outs that look alike come from different tables or passages of the source.

Tested on: TGFβ signal
Assay: TGFβ signal inhibitory activity, (SBE)4-Luc reporter in A549 cells (Test Examples 1A and 1B)
Type: cell-based, human
Conditions: Homo sapiens, A549, read-out: TGFβ inhibition rate, %
Protocol: Test Example 1A: TGFβ signal inhibitory activity (in vitro test) The compounds according to the present invention was evaluated for TGFβ signal inhibitory activity according to the method described in J. Boil .Chem., 273, 21145-21152 (1998). Specifically, a plasmid having four tandem binding sequences of Smad3, a TGF-beta signal transducer, to the upstream of a luciferases gene were used as a reporter plasmid ((SBE)4-Luc) to detect TGF-beta signal, This reporter gene was introduced into human pulmonary carcinoma epithelial cells (A549) (available from ATCC) to establish a stable cell line. A test compound and TGFβ-1 (2 ng/ ml) were added to the cells, and the mixture was cultured for 4 hr. In this case, the compounds according to the present invention synthesized in the Examples were used as the test compound. After the culture, the luciferase activity of the cells were measured by chemiluminescence (Steady Glo (trademark) luciferase assay system, available from Promega). Likewise, the luciferase activity was measured as a control against the culture of cells with the addition of TGFβ only and the culture of cells without the addition of both TGFβ and the test compound.
The TGFβ inhibition (%) was calculated by the following equation, based on the measurement results. TGFβ inhibition(%) = (A-B)/(A-C) × 100 [formula] wherein • A: luciferase activity with the addition of TGFβ1 and without the addition of test compound (relative luciferase unit), • B: luciferase activity with the addition of both TGFβ1 and test compound (relative luciferase unit), and • C: luciferase activity without the addition of both TGFβ1 and test compound (relative luciferase unit).
The test was carried out for each of test compound at the concentrations of 3 µM and 10 µM. For certain test compounds, the test was further carried out for test compound at the concentration of 1 µM.
For the compounds of Reference Examples, the TGFβ signal inhibitory activity was evaluated in the same manner as in Test Example 1A.

[1] = 3 µM, compounds of Reference Examples (Test Example 1B)
[2] = 10 µM, compounds of Reference Examples (Test Example 1B)
[3] = test compound 3 µM, TGFβ-1 2 ng/ml, 4 hr, Table 1A
[4] = test compound 3 µM, Reference Examples, Table 1B
[5] = test compound 10 µM, Reference Examples, Table 1B
[6] = test compound 10 µM, TGFβ-1 2 ng/ml, 4 hr, Table 1A

**Q.** With `COc1cc2c(Oc3ccc(C)nc3-c3nccs3)ccnc2cc1OCc1ccccc1` [Compound r328] as the compound, how does the inhibition at 3 µM [1] read?
**A.** Its inhibition at 3 µM is 100%.

**Q.** What about the inhibition at 10 µM [2] of the same compound?
**A.** Its inhibition at 10 µM is 100%.

**Q.** Which results are given for `COc1ccc(Oc2ccnc3cc(OC)c(OC)cc23)cn1` [Compound r207, 6,7-Dimethoxy-4-(6-methoxy-pyridin-3-yloxy)-quinoline]?
**A.** inhibition at 3 µM [1]: 77%; inhibition at 10 µM [2]: 99%

**Q.** `Cc1ccc(Oc2ccnc3ccc(OCCCCl)cc23)c(-c2ncccn2)n1` [Compound 210, 6-(3-Chloro-propoxy)-4-(6-methyl-2-pyrimidin-2-yl-pyridin-3-yloxy)-quinoline] was tested. Which inhibition at 3 µM [3] did it give?
**A.** Its inhibition at 3 µM is 87%.

**Q.** For `COc1cc2c(Oc3cc4ccccc4nc3C)ccnc2cc1OCCN1CCC(O)CC1` [Compound r364], which inhibition at 3 µM [1] is on record?
**A.** Its inhibition at 3 µM is 100%.

**Q.** And the inhibition at 10 µM [2]?
**A.** Its inhibition at 10 µM is 100%.

**Q.** Which inhibition at 3 µM [4] does the source give for `CCCOC(=O)c1cc(C(C)=O)ccc1Oc1ccnc2cc(OC)c(OC)cc12` [Compound r95] here?
**A.** Its inhibition at 3 µM is 67%.

**Q.** What about the inhibition at 10 µM [5] of the same compound?
**A.** Its inhibition at 10 µM is 96%.

**Q.** What does the source list for `COc1cc2nccc(Oc3cccc(C(=O)c4ccccc4)c3)c2cc1OC` [r77]?
**A.** inhibition at 3 µM [4]: 0%; inhibition at 10 µM [5]: 46%

**Q.** What does the source list for `Fc1ccc2nccc(Oc3cc4cccnc4nc3-c3ccccc3)c2c1` [Compound 53, 3-(6-Fluoro-quinolin-4-yloxy)-2-phenyl-[1,8]naphthyridine]?
**A.** inhibition at 1 µM (test compound 1 µM, TGFβ-1 2 ng/ml, 4 hr, Table 1A): 43%; inhibition at 3 µM [3]: 83%

**Q.** Which inhibition at 3 µM [3] does the source give for `Cc1cc(Oc2ncnc3ccc(Br)cc23)c(-c2ccccn2)nc1C` [Compound 25, 6-Bromo-4-(5,6-dimethyl-[2,2']bipyridin-3-yloxy)-quinazoline] here?
**A.** Its inhibition at 3 µM is 89%.

**Q.** And the inhibition at 10 µM [6]?
**A.** Its inhibition at 10 µM is 99%.

**Q.** With `CCc1ccc(Oc2ccnc3cc(OC)c(F)cc23)c(-c2ccccn2)n1` [Compound 162, 6-Ethyl-3-(6-fluoro-7-methoxy-quinolin-4-yloxy)-[2,2']bipyridine] as the compound, how does the inhibition at 3 µM [3] read?
**A.** The inhibition at 3 µM was 100%.

**Q.** And the inhibition at 10 µM [6]?
**A.** The inhibition at 10 µM was 100%.

**Q.** For `COc1cc2c(Oc3ccc(C)cc3C(=O)c3ccccc3)ccnc2cc1OCCCCN1CCNCC1` [Compound r147], which inhibition at 3 µM [4] is on record?
**A.** The inhibition at 3 µM was 98%.

**Q.** What about the inhibition at 10 µM [5] of the same compound?
**A.** The inhibition at 10 µM was 100%.

**Q.** Which results are given for `COc1ccc(Oc2ncnc3cc(OC)c(OC)cc23)c(C(C)=O)c1` [r162]?
**A.** inhibition at 3 µM [4]: 5%; inhibition at 10 µM [5]: 54%

**Q.** `COc1cc2nccc(Oc3ccc(C)nc3/C=C/c3ccccc3)c2cc1OC` [r216] was tested. Which inhibition at 3 µM [1] did it give?
**A.** The inhibition at 3 µM was 22%.

**Q.** What about the inhibition at 10 µM [2] of the same compound?
**A.** Its inhibition at 10 µM is 73%.

**Q.** What does the source list for `COc1cc2c(Oc3cc4ccccc4nc3C(C)=O)ccnc2cc1OCC(O)CO` (stereo not drawn) [Compound r395]?
**A.** inhibition at 3 µM [1]: 96%; inhibition at 10 µM [2]: 100%

**Q.** With `COc1cc2nccc(Oc3ccc(C)cc3C(=O)c3ccc(OCCN4CCCCC4)cc3)c2cc1OC` [Compound r190] as the compound, how does the inhibition at 3 µM [1] read?
**A.** The inhibition at 3 µM was 30%.

**Q.** And the inhibition at 10 µM [2]?
**A.** The inhibition at 10 µM was 86%.

**Q.** For `COc1ccc(C(=O)c2ccc(C)cc2)c(Oc2ccnc3cc(OC)c(OC)cc23)c1` [Compound r65], which inhibition at 3 µM [4] is on record?
**A.** The inhibition at 3 µM was 58%.

**Q.** What about the inhibition at 10 µM [5] of the same compound?
**A.** The inhibition at 10 µM was 100%.

**Q.** With `COc1cc2c(Oc3ccc(C)cc3C(=O)c3ccccc3)ccnc2cc1OCCCCN1CCN(C)CC1` [Compound r148] as the compound, how does the inhibition at 3 µM [4] read?
**A.** The inhibition at 3 µM was 99%.

**Q.** And the inhibition at 10 µM [5]?
**A.** The inhibition at 10 µM was 100%.

**Q.** With `COc1cc2c(Oc3cc4ccccc4nc3C)ccnc2cc1OCCn1ccnc1` [Compound r368] as the compound, how does the inhibition at 3 µM [1] read?
**A.** Its inhibition at 3 µM is 100%.

**Q.** What about the inhibition at 10 µM [2] of the same compound?
**A.** Its inhibition at 10 µM is 100%.

**Q.** `COc1cc2nccc(Oc3cc(C)c(C)cc3C(C)=NO)c2cc1OC` [Compound r195] was tested. Which inhibition at 3 µM [1] did it give?
**A.** Its inhibition at 3 µM is 99%.

**Q.** And the inhibition at 10 µM [2]?
**A.** Its inhibition at 10 µM is 100%.

**Q.** How did the inhibition at 3 µM [4] turn out when `CCCCOC(=O)c1ccccc1Oc1ccnc2cc(OC)c(OC)cc12` [Compound r98] was run?
**A.** The inhibition at 3 µM was 4%.

**Q.** What about the inhibition at 10 µM [5] of the same compound?
**A.** The inhibition at 10 µM was 93%.

**Q.** How did the inhibition at 3 µM [3] turn out when `COc1cc2nccc(Oc3cc4cccnc4nc3C)c2cc1F` [Compound 160, 3-(6-Fluoro-7-methoxy-quinolin-4-yloxy)-2-methyl-[1,8]naphthyridine] was run?
**A.** The inhibition at 3 µM was 56%.

**Q.** And the inhibition at 10 µM [6]?
**A.** Its inhibition at 10 µM is 87%.

**Q.** What does the source list for `CCN(CC)CCCOc1cc2nccc(Oc3ccc(C)cc3C(=O)c3ccccc3)c2cc1OC` [Compound r134]?
**A.** inhibition at 3 µM [4]: 100%; inhibition at 10 µM [5]: 100%

**Q.** What does the source list for `COc1cc2c(Oc3ccc(C)cc3C(=O)c3ccccc3)ccnc2cc1OCCCCN1CCC(CO)CC1` [Compound r144]?
**A.** inhibition at 3 µM [4]: 99%; inhibition at 10 µM [5]: 100%

**Q.** `COc1cc2nccc(Oc3ccc(C)nc3-c3ccccc3OC)c2cc1OC` [Compound r227] was tested. Which inhibition at 3 µM [1] did it give?
**A.** The inhibition at 3 µM was 50%.

**Q.** What about the inhibition at 10 µM [2] of the same compound?
**A.** Its inhibition at 10 µM is 87%.
